Source: US12410184B2, “Crystalline forms of a menin inhibitor” (Kura Oncology, Inc., priority 2023, dated 2025)

What was measured:
[1] = Compound 1, Form 1 and Form 5 interconversion study (slurry in saturated solutions, XRPD); assay type: physicochemical; conditions: conclusion from Table 5 interconversion study
Method: Saturated solutions of Compound 1, Form 1, in EtOH, MTBE, and isopropyl acetate at 50° C. were prepared. About 6 mg of Compound 1, Form 1, and Compound 1, Form 5, were weighed into each saturated solutions, and the resulting suspensions were slurried for 2 days at corresponding temperature. The resulting solids were sampled for XRPD analysis.

[2] = Solid form stability under humidity or vacuum/heat; assay type: physicochemical
Method: Treatment of Form 5 at 40° C., 75% relative humidity for 6 days provided mainly Form 4.
Treatment of Form 4 at 50° C. under vacuum and inert atmosphere for 5 days provided mainly Form 4.

## CNc1nc(NC2CCN(Cc3ccc4c(cc(C#N)n4C[C@H](C)N4CCN(S(C)(=O)=O)CC4)c3C)CC2)c2cc(CC(F)(F)F)sc2n1 [Compound 1, Form 1, (S)-4-methyl-5-((4-((2-(methylamino)-6-(2,2,2-trifluoroethyl)thieno[2,3-d]pyrimidin-4-yl)amino)piperidin-1-yl)methyl)-1-(2-(4-(methylsulfonyl)piperazin-1-yl)propyl)-1H-indole-2-carbonitrile]
[1]
  Thermodynamic stability of crystalline form: thermodynamically stable crystalline form

## CNc1nc(NC2CCN(Cc3ccc4c(cc(C#N)n4C[C@H](C)N4CCN(S(C)(=O)=O)CC4)c3C)CC2)c2cc(CC(F)(F)F)sc2n1 [Compound 1, Form 4, (S)-4-methyl-5-((4-((2-(methylamino)-6-(2,2,2-trifluoroethyl)thieno[2,3-d]pyrimidin-4-yl)amino)piperidin-1-yl)methyl)-1-(2-(4-(methylsulfonyl)piperazin-1-yl)propyl)-1H-indole-2-carbonitrile]
[2]; 50° C. under vacuum and inert atmosphere, 5 days
  Solid form after treatment: mainly Form 4

## CNc1nc(NC2CCN(Cc3ccc4c(cc(C#N)n4C[C@H](C)N4CCN(S(C)(=O)=O)CC4)c3C)CC2)c2cc(CC(F)(F)F)sc2n1 [Compound 1, Form 5, (S)-4-methyl-5-((4-((2-(methylamino)-6-(2,2,2-trifluoroethyl)thieno[2,3-d]pyrimidin-4-yl)amino)piperidin-1-yl)methyl)-1-(2-(4-(methylsulfonyl)piperazin-1-yl)propyl)-1H-indole-2-carbonitrile]
[2]; 40° C., 75% relative humidity, 6 days
  Solid form after treatment: mainly Form 4
